Values joined by “and” are separate entries in the source; they are usually repeats but may differ in a detail not shown here. Equal entries are not always repeated.
Experiments:
[1] = Assessment of PU-DZ8 brain levels by HPLC/MS/MS; assay type: in vivo, mouse; settings: 75 mg/kg i.p.
Description: Assessment of PU-DZ8 brain levels. Concentrations of compound were determined and quantitated by a MRM mode using a tandem high-performance liquid chromatography-mass/mass spectrometry (HPLC/MS/MS). A weighed piece of brain was rinsed with saline isotonic solution, dried with gauze and then homogenized in mobile phase (acetonitrile (ACN)/0.1% formic acid=1.2/2.8, v/v). Haloperidol was added as internal standard. PU-DZ8 was extracted in methylene chloride, the organic layer was separated, speedily dried under vacuum and reconstituted in the mobile phase. Compound analysis was performed in the API 4000™ LC/MS/MS (Applied Biosystems) which was coupled with a Shimadzu LC system and a 96-well plate autosampler. A Gemini C18 column (5μ particle size, 50×4.6 mm I.D.) was used for the LC separation. The analyte was eluted under an isocratic condition for 4 min at a flow rate of 0.4 mL/min
One dose of PU-DZ8 (75 mg/kg) was administered intraperitoneally (i.p.) to female mice of 2.5-4 months in age (n=32) and animals were sacrificed in the interval of 0 to 36 h. Both aggregate-free Tau (S1) and insoluble Tau (P3) fractions were prepared from the subcortical and cortical regions of these mice. PU-DZ8 levels in the brain reached 0.35 μg/g (˜700 nM) at 4 h, and the pharmacologically relevant dose was retained for at least 12 h post-administration (0.2 μg/g, ˜390 nM).

[2] = system: mutant tau (HT7), p35, cdk5, Hsp70; assay: One dose PU-DZ8 in JNPL3 mice, S1 and P3 brain fractions by Western blot; assay type: in vivo, mouse; settings: for soluble mutant tau (HT7), S1 fraction, subcortical brain region: from 4 h, maintained up to 36 h
Description: JNPL3 female mice 6 months of age were treated IP with the Hsp90 inhibitor PU-DZ8 (75 mg/kg) and sacrificed various times as indicated in FIG. 9. Brains were divided in subcortical and cortical regions and processed using the Greenberg and Davies extraction protocol (77). Sarkosyl soluble fractions (S1) extracted from the subcortical region were analyzed by WB for p35, cdk5, mutant tau (HT7), Hsp90 and Hsp70. Protein bands were normalized to actin and plotted as relative change from untreated mice.
To investigate whether the human TauP301L present in the JNPL3 line of mice is a sensitive target for Hsp90 inhibition, animals were treated with the brain-barrier permeable Hsp90 inhibitor PU-DZ8. This agent is a higher-potency water soluble derivative of PU24FC1 (EC50JNPL3 brain Hsp90=70 nM). One dose of PU-DZ8 (75 mg/kg) was administered intraperitoneally (i.p.) to female mice of 2.5-4 months in age (n=32) and animals were sacrificed in the interval of 0 to 36 h. Both aggregate-free Tau (S1) and insoluble Tau (P3) fractions were prepared from the subcortical and cortical regions of these mice. Human Tau levels were assessed by immunobloting with a human specific anti-Tau antibody (HT-7). […] We next examined in a 4- to 6-month old mouse group (n=15) whether the stability of mTau as present in tau aggregates (P3 fraction) was additionally regulated by Hsp90.
For experiments designed to test the kinetics of mTau and p35 modulation by Hsp90 inhibitors, animals were administered intraperitoneally (i.p.) 75 mg/kg PU-DZ8 in PBS (6% DMSO). Mice were sacrificed by CO2 euthanasia at the indicated times following PU-DZ8 administration. Hemibrains were separated into cortico-limbic (cortex, amygdale and hippocampus) and subcortical (basal ganglia, diencephalon, brain stem and cerebellum) regions, quickly frozen on dry ice and stored at −80° C. and processed. In summary, each brain piece was weighed and homogenized in three volumes of Tris-buffered saline (TBS) containing protease and phosphatase inhibitors (25 mM Tris-HCl, pH 7.4, 150 mM NaCl, 1 mM EDTA, 1 mM EGTA, 5 mM sodium pyrophosphate, 30 mM β-glycerophosphate, 30 mM sodium fluoride, 1 mM phenylmethylsulfonyl fluoride (PMSF)). The homogenates were centrifuged at 27,000 g for 15 min at 4° C. Supernatants were collected as S1 fractions, and the pellets (P1) were re-homogenized in three volumes of salt/sucrose buffer (0.8 M NaCl, 10% sucrose, 10 mM Tris/HCl, pH 7.4, 1 mM EGTA, 1 mM PMSF) and centrifuged as above. The resulting pellets were discarded and the supernatants were incubated with sarkosyl (Sigma, St Louis, Mo., USA; 1% final concentration) for 1 h at 37° C. The sarkosyl mixtures were then centrifuged at 150,000 g for 30 min at 4° C. The supernatants (S2 fraction) were collected, and the pellets (P3) were resuspended in 50 μL 2% SDS in TBS and stored at −80° C. for western blotting. Proteins were analyzed by Western blot.

CC(C)NCCCn1c(Cc2cc3c(cc2I)OCO3)nc2c(N)nc(F)nc21 [PU-DZ8]
levels in the brain ([1]; 12 h post-administration): 0.2 μg/g and ~390 nM
levels in the brain ([1]; at 4 h): 0.35 μg/g and ~700 nM
chaperone levels (hsp70) ([2]; one dose 75 mg/kg IP): hsp70 increase
cdk5 expression ([2]; one dose 75 mg/kg i.p.): No significant changes
expressions of Akt and Raf-1 ([2]; one dose 75 mg/kg i.p.): not altered
insoluble and hyperphosphorylated Tau (P3 fraction) ([2]; one dose 75 mg/kg i.p., 4- to 6-month old mice): significant reduction
soluble mutant tau (HT7), S1 fraction, subcortical brain region ([2]; one dose 75 mg/kg i.p.): significant decrease
soluble mutant tau (HT7), S1 fraction, subcortical brain region ([2]; one dose 75 mg/kg i.p., listed as DZ8): degradation of the mutant protein
